One substance from publication PMC9764201, “Half-calcified calmodulin promotes basal activity and inactivation of the L-type calcium channel CaV1.2” (The Journal of Biological Chemistry, 2022) can be followed below.

This assay concerns CaV1.2. Nature of the assay: Cell-attached single-channel recording of CaV1.2 variants in HEK 293T/17 cells. In kind it is cell-based, rat. Particulars: 110 mM Ba2+, 0 mV from -80 mV; n=8; mean±SEM (Table S2). On the procedure:
HEK 293T/17 cells (ATCC) were maintained as previously described ([15], [53]). For electrophysiology, Lipofectamine 2000 (Invitrogene) or JetPrime (Polyplus Transfection) was used to transiently transfect cells with indicated plasmid DNAs in 35 mm dishes. For biochemistry experiments, transient transfection of HEK 293T/17 cells in […] dishes was achieved using either JetPrime or, as previously described ([15], [53]), the calcium phosphate method. Cells were cotransfected with plasmids encoding the pore-forming α11.2 subunit N-terminally tagged with eCFP ([15], [53]) or mCherry ([54]) plus pGWIH-based plasmids encoding the auxiliary subunits rat β2A ([55]) and rabbit α2δ-1 ([56]) as previously described ([15], [53]). For all transfections, equimolar ratio of 1:1:1 was used for CaV1.2 channel subunits and later further optimized (JetPrime) for CaM (at ratio of 1:1:1:0.5 for α11.2:β2A:α2δ−1:CaM). Rat brain α11.2 (GenBank ID: M67515.1) N-terminally fused to eCFP was utilized as previously described ([15]). The point mutations in plasmids encoding single-residue I1654A, Y1657D (this report), and K1662E exchanges in α11.2 were generated via QuikChange II as previously described ([15], [53]) using N-terminally eCFP ([15], [53]) or mCherry tagged ([54]) rat brain α11.2 plasmid template DNAs. We studied CDI using mCherry-tagged α11.2 subunit coexpressed with the other, untagged CaV1.2 subunits and WT CaM or the calmodulin 34 mutant CaM34 (kindly provided by JP Adelman, ([8])). For some biochemical experiments shown in Fig. S2, YFP-tagged CaM was used ([32]).
Single-channel recordings were performed as described previously ([15], [31]). In brief, low noise raw data were recorded with an Axopatch 200B amplifier and data were sampled at 10 kHz with a low-pass filter at 2 kHz (3 dB, four pole Bessel) and digitalized with a Digidata 1440 digitizer. Recording electrodes were pulled from borosilicate capillary glass ([…]) with a Flaming/Brown micropipette puller (Model P-97, Sutter Instruments), heat polished, and coated with Sylgard (Sylgard 289) until close to the electrode tip. Electrode resistance in solution was usually 5 to 10 MΩ. To keep the membrane potential close to 0 mV the extracellular bath solution contained (in mM) 120 K-Glutamate, 25 KCl, 2 MgCl2, 1 CaCl2, 10 EGTA, 10 Hepes, and 2 Na2-ATP pH 7.4 (KOH). The intracellular pipette solution contained (in mM) 110 BaCl2 and 10 Hepes, adjusted to pH 7.4 (TEA-OH). Cells were depolarized for 2 s from a holding potential of -80 mV to 0 mV every 7 s. Event lists were created from raw Ba^2+ currents after leak and capacity transients were digitally subtracted by pClamp 10. Unitary current events were then analyzed based on the half-height criterium ([57]) using the single-channel software provided by pClamp 10.
For statistical analysis, single-channel parameters were corrected by the channel number (k), respectively, the maximum of simultaneously open channels (PMAX). The number of channels in the patch was estimated based on the observed simultaneous openings and is a precise parameter for k < 4, as included in this article and originally described by R. Horn ([58]). On average, 100 to 200 Ba^2+ current traces were recorded for each cell for each experimental condition for an appropriate statistical analysis.
Table S2. Biophysical properties of WT and Y1657D mutant CaV1.2 as determined by single channel recordings with 110 mM Ba2+. HEK 293T/17 cells were transiently transfected with eCFP-tagged rat CaV1.2 (WT versus Y1657D) plus α2δ1 and β2a. Single-channel parameter were corrected for the number of channels (k) in the patch. Availability denotes the number of active over […] traces. Popen (Po) is the open probability within active traces. Ipeak is the current flown through all channels in a patch at the time point of the current maximum and was corrected by the number of channels. Mean ensemble average (MEA) is the mean average current of all traces after being superimposed. […]

For “CaV1.2: WT rat brain α11.2 with α2δ1 and β2A expressed in HEK 293T/17 cells”, the Availability came to 65±12%, the IPeak amounted to 21.2±5.3 fA, the “MEA (mean ensemble average)” value is recorded as 8.5±2.4 fA and the “MOT (mean open time)” value came out at 1.4 ± 0.2 ms. The Po was 2.0±0.5% and the unitary i is given as 0.7±0.04 pA.
